In ChEMBL document CHEMBL3885881, “DrugMatrix”:

Species: Rattus norvegicus
Experiment: DrugMatrix - Regimen: Daily Repeat
Type: toxicity, organism-based, Sprague-Dawley
Parameters: regimen Daily Repeat, gender Male, age 6-8 weeks
Details: in vivo, sc, route subcutaneous, […]; for ABSOLUTE BASOPHIL / ABSOLUTE EOSINOPHIL / ABSOLUTE LYMPHOCYTE / ABSOLUTE MONOCYTE / ABSOLUTE SEGMENTED NEUTROPHIL / BASOPHIL / EOSINOPHIL / ERYTHROCYTE COUNT / HEMATOCRIT / HEMOGLOBIN / LEUKOCYTE COUNT / LYMPHOCYTE / MEAN CORPUSCULAR HEMOGLOBIN / MEAN CORPUSCULAR HEMOGLOBIN CONCENTRATION / MEAN CORPUSCULAR VOLUME / MONOCYTE / NEUTROPHIL / NUCLEATED RED BLOOD CELLS / PLATELET COUNT: tissue Blood; for ALANINE AMINOTRANSFERASE / ALBUMIN / ALKALINE PHOSPHATASE / ASPARTATE AMINOTRANSFERASE / BLOOD UREA NITROGEN / CARBON DIOXIDE / CHLORIDE / CHOLESTEROL / CREATINE PHOSPHOKINASE / CREATININE / GLUCOSE / LACTATE DEHYDROGENASE / LIPASE / PHOSPHORUS / POTASSIUM / SODIUM / TOTAL BILIRUBIN / TOTAL PROTEIN / URIC ACID: tissue Plasma
[1] = 29 mg/kg, 120 h, dose level Low, time 5 day
[2] = 1200 mg/kg, 72 h, dose level High, time 3 day
[3] = 1200 mg/kg, 120 h, dose level High, time 5 day

## Nc1nc2c(ncn2CCC(CO)CO)c(=O)[nH]1 [PENCICLOVIR]
[1]
  ABSOLUTE BASOPHIL: 0 CELLS/uL
  ABSOLUTE EOSINOPHIL: 0 CELLS/uL
  ABSOLUTE LYMPHOCYTE: 9185.33 CELLS/uL
  ABSOLUTE MONOCYTE: 38 CELLS/uL
  ABSOLUTE SEGMENTED NEUTROPHIL: 2710 CELLS/uL
  BASOPHIL: 0%
  EOSINOPHIL: 0%
  ERYTHROCYTE COUNT: 5.6 x10E6/uL
  HEMATOCRIT: 35.77%
  HEMOGLOBIN: 13.33 G/DL
  LEUKOCYTE COUNT: 11.93 x10E3/uL
  LYMPHOCYTE: 77%
  MEAN CORPUSCULAR HEMOGLOBIN: 23.83 pg
  MEAN CORPUSCULAR HEMOGLOBIN CONCENTRATION: 37.27 G/DL
  MEAN CORPUSCULAR VOLUME: 63.8 fL
  MONOCYTE: 0.33%
  NEUTROPHIL: 22.67%
  NUCLEATED RED BLOOD CELLS: 0 /100WBC
  PLATELET COUNT: 979 x10E3/uL
  ALANINE AMINOTRANSFERASE: 64 u/L
  ALBUMIN: 3.9 G/DL
  ALKALINE PHOSPHATASE: 325.67 u/L
  ASPARTATE AMINOTRANSFERASE: 95 u/L
  BLOOD UREA NITROGEN: 19 mg/dL
  CARBON DIOXIDE: 24.67 mmol/L
  CHLORIDE: 105.33 MEQ/L
  CHOLESTEROL: 96.67 mg/dL
  CREATINE PHOSPHOKINASE: 520.33 u/L
  CREATININE: 0.18 mg/dL
  GLUCOSE: 168.33 mg/dL
  LACTATE DEHYDROGENASE: 141.67 u/L
  LIPASE: 8 u/L
  PHOSPHORUS: 14.77 mg/dL
  POTASSIUM: 6.25 MEQ/L
  SODIUM: 144.77 MEQ/L
  TOTAL BILIRUBIN: 0.17 mg/dL
  TOTAL PROTEIN: 5.7 G/DL
  URIC ACID: 1.5 mg/dL
[2]
  ABSOLUTE BASOPHIL: 0 CELLS/uL
  ABSOLUTE EOSINOPHIL: 107.33 CELLS/uL
  ABSOLUTE LYMPHOCYTE: 7265 CELLS/uL
  ABSOLUTE MONOCYTE: 87 CELLS/uL
  ABSOLUTE SEGMENTED NEUTROPHIL: 974 CELLS/uL
  BASOPHIL: 0%
  EOSINOPHIL: 1.33%
  ERYTHROCYTE COUNT: 4.97 x10E6/uL
  HEMATOCRIT: 30.73%
  HEMOGLOBIN: 11.67 G/DL
  LEUKOCYTE COUNT: 8.43 x10E3/uL
  LYMPHOCYTE: 86.33%
  MEAN CORPUSCULAR HEMOGLOBIN: 23.43 pg
  MEAN CORPUSCULAR HEMOGLOBIN CONCENTRATION: 37.97 G/DL
  MEAN CORPUSCULAR VOLUME: 61.77 fL
  MONOCYTE: 1%
  NEUTROPHIL: 11.33%
  NUCLEATED RED BLOOD CELLS: 0.33 /100WBC
  PLATELET COUNT: 1398.33 x10E3/uL
  ALANINE AMINOTRANSFERASE: 36 u/L
  ALBUMIN: 3.13 G/DL
  ALKALINE PHOSPHATASE: 311.67 u/L
  ASPARTATE AMINOTRANSFERASE: 64.33 u/L
  BLOOD UREA NITROGEN: 12.33 mg/dL
  CARBON DIOXIDE: 28 mmol/L
  CHLORIDE: 105.5 MEQ/L
  CHOLESTEROL: 58.33 mg/dL
  CREATINE PHOSPHOKINASE: 201.33 u/L
  CREATININE: 0.19 mg/dL
  GLUCOSE: 132.67 mg/dL
  LACTATE DEHYDROGENASE: 105.67 u/L
  LIPASE: 6.5 u/L
  PHOSPHORUS: 10.63 mg/dL
  POTASSIUM: 5.8 MEQ/L
  SODIUM: 147.5 MEQ/L
  TOTAL BILIRUBIN: 0.0667 mg/dL
  TOTAL PROTEIN: 5.97 G/DL
  URIC ACID: 0.93 mg/dL
[3]
  ABSOLUTE BASOPHIL: 0 CELLS/uL
  ABSOLUTE EOSINOPHIL: 219.33 CELLS/uL
  ABSOLUTE LYMPHOCYTE: 14998.67 CELLS/uL
  ABSOLUTE MONOCYTE: 280 CELLS/uL
  ABSOLUTE SEGMENTED NEUTROPHIL: 5502 CELLS/uL
  BASOPHIL: 0%
  EOSINOPHIL: 1%
  ERYTHROCYTE COUNT: 4.92 x10E6/uL
  HEMATOCRIT: 30.6%
  HEMOGLOBIN: 11.77 G/DL
  LEUKOCYTE COUNT: 21 x10E3/uL
  LYMPHOCYTE: 71.33%
  MEAN CORPUSCULAR HEMOGLOBIN: 23.97 pg
  MEAN CORPUSCULAR HEMOGLOBIN CONCENTRATION: 38.47 G/DL
  MEAN CORPUSCULAR VOLUME: 62.2 fL
  MONOCYTE: 1.33%
  NEUTROPHIL: 26.33%
  NUCLEATED RED BLOOD CELLS: 0 /100WBC
  PLATELET COUNT: 2260.33 x10E3/uL
  ALANINE AMINOTRANSFERASE: 31.33 u/L
  ALBUMIN: 2.63 G/DL
  ALKALINE PHOSPHATASE: 297.33 u/L
  ASPARTATE AMINOTRANSFERASE: 73.67 u/L
  BLOOD UREA NITROGEN: 22 mg/dL
  CARBON DIOXIDE: 25.33 mmol/L
  CHLORIDE: 103 MEQ/L
  CHOLESTEROL: 52 mg/dL
  CREATINE PHOSPHOKINASE: 232.33 u/L
  CREATININE: 0.34 mg/dL
  GLUCOSE: 147 mg/dL
  LACTATE DEHYDROGENASE: 216.33 u/L
  LIPASE: 6.67 u/L
  PHOSPHORUS: 12 mg/dL
  POTASSIUM: 6.2 MEQ/L
  SODIUM: 143.07 MEQ/L
  TOTAL BILIRUBIN: 0.1 mg/dL
  TOTAL PROTEIN: 5.73 G/DL
  URIC ACID: 2.3 mg/dL
